The values that follow come from US20230242526A1 (Zentaur Therapeutics International Limited, priority 2020, published 2023).

The test system of data set [1] is human breast squamous HCC1806 cell line. Briefly: CyQUANT Direct cell proliferation assay, HCC1806. Conditions: HCC1806, 168 h, 7 days. It counts as cell-based. An excerpt:
(§1) The human ovarian carcinoma OVCAR3 cell line (ATCC HTB-161™) or human breast squamous HCC1806 cell line (ATCC CRL 2335) were obtained from American Type Culture Collection (ATCC), and maintained in culture media according to the supplier's specification.
(§2) The CyQUANT® Direct Cell Proliferation Assay Kit (Invitrogen™, catalog No. G35012) was utilized to test the inhibitory activities of the CDK2 inhibitors described in this disclosure against OVCAR3 or HCC1806 tumor cells.
(§3) CyQUANT® Direct Cell Proliferation Assay: The spent medium from the purchased tumor cell culture plate was removed and the tumor cells were washed with PBS buffer twice. Trypsin (VWR catalog No. 0458-25G) was added to digest the tumor cells until tumor cells appeared round shaped and to dissociate adherent cells from the plate wall in which they are being cultured. Then RPMI-1640 media (HCC1806, Gibco™ catalog No, A10491-01) with 10% fetal bovine serum (FBS) (Hyclone™ catalog No. SV30160.03), or RPMI-1640 media (OVCAR-3, Gibco™ catalog No. 10370-021) with 20% FBS and 0.01 mg/mL insulin was added to stop the trypsin digestion reaction. The tumor cells were lightly agitated with a liquid transfer pipette to cause tumor cells suspended in the culture media. The cells were counted. The complete medium was used to prepare tumor cell suspension.
(§4) OVCAR3 or HCC1806 cells were seeded at 40 μL/well in 384-well plates in growth media containing FBS and cultured 24 hours in the incubator at 37° C., 5% CO2. […] Compound solutions were added by Agilent Bravo liquid handler. […] The control wells contained the growth medium having 0.1% DMSO. Cells were incubated at 37° C., 5% CO2 for 7 days.
(§5) CYQUANT Direct Cell Proliferation Assay (Molecular Probes, Eugene, Oreg.) was then performed following manufacturer's instructions to prepare the detection reagents. 50 μL of detection reagent was aliquot and added to each well and the cells were incubated at 37° C. for 1 hr.
(§6) The cell culture plates were placed on TECAN M1000 microplate reader to detect the fluorescence intensity at 508 nm excitation and 527 nm emission wavelengths. Graphpad Prism 6.0 software was used for data processing, preparing cell growth curve, calculating percentage inhibition on cell growth. IC50 values were calculated by concentration-response curve fitting utilizing a four-parameter analytical method using GraphPad Prism software.

The nature of data set [2]: Pharmacokinetic profiling in mouse (i.v. and i.g.). The format is in vivo, male ICR mice. Conditions: male, ICR, plasma; for Vd: read-out: Vdss; for bioavailability: calculated by using the AUC0-t, read-out: F (bioavailability). How it is done: (1). Kolliphor® HS 15 (formerly regarded as Solutol® HS 15) a non-ionic surfactant, was used as a solubilizer in preparing the parenteral formulations; (2). DMA (N,N-dimethylacetamide); (3). saline; and (4). Tween 80; (5) acetyl nitrile. […] To a glass flask was added 6.0 μmol of the test compound, and 0.265 mL of DMA. The glass flask was vortexed to allow the complete dissolution of the solid. Then 0.265 mL of 30% Solution HS 15 was added to the test compound solution in DMA and was vortexed to allow homogeneous mixing. Lastly, 2.12 mL of saline was added to the mixture in the glass flask. The flask was vortexed to allow homogeneous mixing. […] A clear liquid test sample iv formulation was obtained. An aliquot of 100 μL of the test sample iv formulation was placed into a 1.5 mL EP tube and was kept at 2-8° C. for future sample concentration quantification by HPLC. […] To a glass flask was added 27 μmol of the test compound and 4.047 mL of 0.5% MC with 01. % Tween 80. The flask and the mixture was vortexed followed by sonication for about 15 minutes to allow even distribution of the solids. A white suspension of the text sample was obtained. […] Ltd. Before receiving the test compound formulations, the animals were on fasting overnight. On the day of dosing, the animals were fed at 4h after the dosing. During the tests, the animals were free to drink water. Each test compound was tested in duplicate with different routes of administration: in one set of tests, mice received test compounds by iv injection route, and in the other set of tests, mice received the test compounds by IG administration. The schedules of the test for each mouse are illustrated in Table 5 below. [table] 100 μL blood sample was taken from the veins in animal eyelid. The whole blood sample was placed in anticoagulation tubes treated with EDTA-K2. The whole blood sample was centrifuged at 1500 g for 10 min. The plasma at the upper level was collected into test tubes. An aliquot of 10 μL of sample was added with 100 μL ACN which contains of Verapamil, 5 ng/mL, Glibenclamide, 50 ng/mL, Tolbutamide, 200 ng/mL and Diclofenac, 200 ng mL-1 for protein precipitation. The mixture was vortexed for 1 min, then centrifuged at 13000 rpm for 8 min. Then 70 μL of supernatant was added with 70 μL water, then vortexed for 10 min. An aliquot of 5 μL of the mixture was injected into the LC-MS/MS system. LC-MS/MS (API 4000: LC-MS-MS-001), column: […] Sample injection volume is 5 μL. Flow rate is 0.8 mL/min. The detection wavelength is set at 254 nm.

The target of another data set is CDK9/Cyclin T1 (Homo sapiens, UniProt P50750). Briefly: CDK9/Cyclin T1 kinase assay. It counts as biochemical. How it is done: (1). Recombinant enzymes CDK1, CDK2, CDK4, CDK6, CDK9, cyclin B1, cyclin A2, cyclin D3, cyclin E1, cyclin T1 were cloned and purified at Wuxi Biortus Biochemistry Co. Ltd.
(8) Peptide substrate-CDK9 (Ahx-GSRTPMY-NH2, Scilight-Peptide, Cat. C0769102).
The test compounds were dissolved and diluted in DMSO. A stock DMSO solution of the test compound of the invention was prepared by dissolving the compound in DMSO to form a 10 mM solution.
2 μL of testing compound solutions and 5 μL of enzyme solution were added into the 384-well microplate followed by a 10 minute incubation. The reaction was then initiated by the addition of 5 μL of peptide substrate and ATP mixture solution and incubated at 27° C. for 30 minutes. The enzyme reaction in each well was terminated by adding 4 μL of 120 mM EDTA solution. Each assay was carried out in duplicates.
DMSO was used as negative control (0%) for enzyme activity. 20 μM Staurosporine was used as positive control (100%) for enzyme activity.
Plates were read for fluorescence on a Caliper EZ Reader II by separating the fluorescent labeled substrate from the enzyme phosphorylation product by electrophoresis. Data were collected and analyzed using GraphPad Prism version 6.0 software.
Dose-response curves were plotted from inhibition data generated, each in duplicate, from 10 point serial dilutions of inhibitory compounds. Concentration of compound was plotted against % kinase activity. To generate IC50 values, the dose-response curves were then fitted to a standard sigmoidal curve and IC50 values were derived by nonlinear regression analysis.

The subject of data set [3] is human ovarian carcinoma OVCAR3 cell line. The data set can be described thus: CyQUANT Direct cell proliferation assay, OVCAR-3. The format is cell-based. As to conditions: OVCAR-3, 168 h, 7 days.
From the text: as §1, §2, §3, §4, §5, §6

CDK9/Cyclin T1, sequence (P50750 whole entry): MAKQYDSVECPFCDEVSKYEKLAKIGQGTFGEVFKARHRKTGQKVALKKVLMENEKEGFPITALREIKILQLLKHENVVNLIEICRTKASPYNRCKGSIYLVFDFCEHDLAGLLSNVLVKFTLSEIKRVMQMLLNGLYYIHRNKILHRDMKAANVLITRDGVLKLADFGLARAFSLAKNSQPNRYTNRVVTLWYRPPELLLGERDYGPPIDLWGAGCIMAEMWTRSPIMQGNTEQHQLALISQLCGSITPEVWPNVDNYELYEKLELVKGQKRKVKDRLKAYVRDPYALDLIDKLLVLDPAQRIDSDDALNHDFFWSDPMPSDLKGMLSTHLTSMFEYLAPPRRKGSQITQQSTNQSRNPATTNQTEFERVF
CDK9/Cyclin T1, sequence (O60563 whole entry partner): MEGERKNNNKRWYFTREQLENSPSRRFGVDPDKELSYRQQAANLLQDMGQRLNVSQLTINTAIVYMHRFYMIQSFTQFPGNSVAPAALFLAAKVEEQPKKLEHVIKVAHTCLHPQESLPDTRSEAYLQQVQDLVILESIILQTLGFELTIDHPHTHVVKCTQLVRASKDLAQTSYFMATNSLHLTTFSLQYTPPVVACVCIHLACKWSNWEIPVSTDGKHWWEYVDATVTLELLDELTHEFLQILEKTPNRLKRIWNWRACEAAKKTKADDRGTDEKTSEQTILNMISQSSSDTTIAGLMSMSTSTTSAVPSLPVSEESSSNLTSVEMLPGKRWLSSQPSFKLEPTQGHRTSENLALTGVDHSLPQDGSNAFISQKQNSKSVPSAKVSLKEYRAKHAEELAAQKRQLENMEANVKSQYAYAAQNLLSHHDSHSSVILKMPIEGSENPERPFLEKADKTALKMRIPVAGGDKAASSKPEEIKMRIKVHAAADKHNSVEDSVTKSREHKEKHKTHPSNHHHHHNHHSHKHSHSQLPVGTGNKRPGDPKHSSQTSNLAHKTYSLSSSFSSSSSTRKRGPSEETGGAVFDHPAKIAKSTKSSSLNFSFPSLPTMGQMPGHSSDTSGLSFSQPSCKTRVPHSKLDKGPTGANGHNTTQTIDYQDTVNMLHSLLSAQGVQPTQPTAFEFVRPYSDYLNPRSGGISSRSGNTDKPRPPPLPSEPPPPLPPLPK

As usually defined, the IC50 is the point on the concentration scale where inhibition reaches its midpoint. A low value points to higher potency. Broadly, the AUC(0-t) is exposure summed from dosing to a finite time, without extrapolation to infinity. A lower AUC(0-t) goes with low exposure. The clearance is the volume of plasma or blood freed of the substance per unit of time. Read a high clearance as efficient removal. As a reminder, the half-life is the time needed for the level to fall by half in the phase considered. The low end stands for rapid decline, the high end for slow decline. Broadly, the Cmax is the maximum level reached in the sampled fluid or tissue. For orientation: Tmax means the time from dosing to the highest level. Broadly, the bioavailability is dose-corrected exposure relative to a reference, in per cent. In data set [1], `Cc1cc2cnc(NC3CCN(S(C)(=O)=O)CC3)nc2n([C@@H]2CCC[C@@]2(C)O)c1=O` [Comp. 4, (−)-8-(2-hydroxy-2-methylcyclopentyl)-6-methyl-2-((1-(methylsulfonyl)piperidin-4-yl)amino)pyrido[2,3-d]pyrimidin-7(8H)-one, reference compound] displayed a 50% inhibitory concentration (IC50) of 41.5 nM. For the same compound, in data set [2] (iv, i.v. 5 mg/kg), the AUC(0-t) is 967 ng·h/mL, the C0 was 8300 ng/mL, the clearance was found to be 86.1 mL/min/kg and the half-life is 11.7 min. Also, in data set [2] (iv, i.v. 5 mg/kg), the Vd was 0.611 L/kg. Besides, in data set [2] (po, i.g. 30 mg/kg), the AUC(0-t) amounted to 245 ng·h/mL, the maximum concentration (Cmax) was 211 ng/mL, the time of peak concentration (Tmax) came to 15 min and the half-life is 134 min. Also, the bioavailability in data set [2] (po, i.g. 30 mg/kg) is 4.2%.
As for `C[C@@]1(O)CCC[C@H]1n1c(=O)c(C(F)F)cc2cnc(NC3CCN(S(C)(=O)=O)CC3)nc21` [Comp. 5, (−)-6-(difluoromethyl)-8-((1R,2R)-2-hydroxy-2-methylcyclopentyl)-2-((1-(methylsulfonyl)piperidin-4-yl)amino)pyrido[2,3-d]pyrimidin-7(8H)-one, reference compound], the half-maximal inhibitory concentration (IC50) against CDK9/Cyclin T1 worked out at 3440 nM. Moreover, it took 40.3 nM to reach half-maximal inhibition in data set [3] (IC50). The compound also returned an IC50 in data set [1] of 52.1 nM. In data set [2] (iv, i.v. 5 mg/kg), this compound had an AUC(0-t) of 1360 ng·h/mL, a C0 of 5020 ng/mL, a clearance of 61.2 mL/min/kg and a half-life of 22 min. The Vd in data set [2] (iv, i.v. 5 mg/kg) is 1 L/kg. Moreover, in data set [2] (po, i.g. 30 mg/kg), the exposure AUC(0-t) is 1190 ng·h/mL, the concentration peaked (Cmax) at 1040 ng/mL, the Tmax was determined as 15 min and the half-life was 166 min. Moreover, in data set [2] (po, i.g. 30 mg/kg), the bioavailability is 14.6%.
As for `[2H]C(F)(F)c1cc2cnc(NC3CCN(S(C)(=O)=O)CC3)nc2n([C@@H]2CCC[C@@]2(C)O)c1=O` [Comp. 28, (−)-6-(difluoromethyl-d)-8-((1R,2R)-2-hydroxy-2-methylcyclopentyl)-2-((1-(methylsulfonyl)piperidin-4-yl)amino)pyrido[2,3-d]pyrimidin-7(8H)-one], the half-inhibitory concentration (IC50) was 3640 nM on CDK9/Cyclin T1, 32.5 nM in data set [3] and 75 nM in data set [1].
Consider `[2H]C([2H])([2H])c1cc2cnc(NC3CCN(S(C)(=O)=O)CC3)nc2n([C@@H]2CCC[C@@]2(C)O)c1=O` [Comp. 37, (−)-8-((1R,2R)-2-hydroxy-2-methylcyclopentyl)-6-(methyl-d3)-2-((1-(methylsulfonyl)piperidin-4-yl)amino)pyrido[2,3-d]pyrimidin-7(8H)-one], for which the IC50 in data set [1] was 35 nM. Further, in data set [2] (iv, i.v. 5 mg/kg), the AUC(0-t) was 1290 ng·h/mL, the C0 is 7420 ng/mL, the clearance came out at 64.7 mL/min/kg and the half-life was 19.8 min. In data set [2] (iv, i.v. 5 mg/kg), the Vd came to 0.703 L/kg. Also, in data set [2] (po, i.g. 30 mg/kg), the area under the curve AUC(0-t) was 605 ng·h/mL, the concentration peaked (Cmax) at 522 ng/mL, the Tmax amounted to 15 min and the half-life was 103 min. The bioavailability in data set [2] (po, i.g. 30 mg/kg) is 7.8%.
